The values below are quoted from earlier work in patent publication US12521383B2 (Slayback Pharma LLC, priority 2022, dated 2026).

The structures appear in SMILES notation.

The conditions of this data set: in water, pH independent solubility profile.

Take `COc1ccc(-n2nc(C(N)=O)c3c2C(=O)N(c2ccc(N4CCCCC4=O)cc2)CC3)cc1` [apixaban, 1-(4-methoxyphenyl)-7-oxo-6-[4-(2-oxopiperidin-1-yl)phenyl]-4,5-dihydropyrazolo [3,4-c] pyridine-3-carboxamide]: the aqueous solubility – broadly, how much of the substance goes into solution per volume – is 40 to 50 µg/mL.
